For 21 compounds, IC50 and Ki results are on record in patent US6630505B2, “Aminopyrrolidine sulfonamides as serine protease inhibitors” (Ortho-McNeil Pharmaceutical, Inc., priority 2001, dated 2003).

T2 sequence (P00742 235-488 limits assumed): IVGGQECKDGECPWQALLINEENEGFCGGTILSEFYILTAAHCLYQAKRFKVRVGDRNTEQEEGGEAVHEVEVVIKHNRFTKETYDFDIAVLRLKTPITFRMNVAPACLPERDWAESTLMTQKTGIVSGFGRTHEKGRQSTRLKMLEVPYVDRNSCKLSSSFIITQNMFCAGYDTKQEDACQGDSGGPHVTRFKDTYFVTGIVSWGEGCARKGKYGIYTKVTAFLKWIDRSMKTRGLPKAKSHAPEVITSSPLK
T2 sequence (P00742 41-179 partner limits assumed): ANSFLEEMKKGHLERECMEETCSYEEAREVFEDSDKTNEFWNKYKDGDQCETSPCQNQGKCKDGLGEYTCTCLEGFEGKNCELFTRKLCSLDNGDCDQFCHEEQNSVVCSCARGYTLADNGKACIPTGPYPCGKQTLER

One assay concerns the target T1, human Lung Tryptase.
T1 construct: 1.0 nM human Lung Tryptase
Kind of assay: Tryptase inhibition, chromogenic peptide substrate hydrolysis assay. In kind it is biochemical. The following applies: 1.0 nM tryptase, 500 μM N-p-Tosyl-GLY-PRO-LYS-pNA, 37° C. As to the method:
The rate of increase in absorbance at 405 nm due to hydrolysis of synthetic chromogenic peptide substrates ([S]: 500 μM N-p-Tosyl-GLY-PRO-LYS-pNA; Sigma T-6140) is measured in the presence and absence of inhibitors (I) with a microplate reader at 37° C. The enzyme reaction is started by the addition of enzyme ([E]: 1.0 nM human Lung Tryptase; Cortex Biochem CP3033). Data is collected over a period of 30 min. and the initial rate of substrate hydrolysis (Vo (mOD/min)) is calculated. Inhibition is calculated by comparing to wells […] (vehicle) and IC50s are determined using a four parameters fit logistics model.
Turning to `NC(N)=Nc1ccc(C(=O)N(Cc2ccc(O)cc2)C2CCN(S(=O)(=O)/C=C/c3ccc(Cl)cc3)C2)cc1` (stereo not shown) [Compound 2, N-[1-[[(E)-2-(4-chlorophenyl)ethenyl]sulfonyl]-3-pyrrolidinyl]-4-[(diaminomethylene)amino]-N-[(4-hydroxyphenyl)methyl]-benzamide], inhibition was half-maximal at 900 nM (IC50).

Take `COC(=O)c1cc(CN(C(=O)c2ccc(N=C(N)N)cc2)C2CCN(S(=O)(=O)/C=C/c3ccc(Cl)cc3)C2)ccc1O` (stereo not shown) [Compound 25, 5-[[[1-[[(E)-2-(4-chlorophenyl)ethenyl]sulfonyl]-3-pyrrolidinyl][4-[(diaminomethylene)amino]benzoyl]amino]methyl]-2-hydroxy-benzoic acid methyl ester]: 700 nM corresponded to half-maximal inhibition (IC50).

As to `NC(N)=Nc1ccc(C(=O)NC2CCN(S(=O)(=O)/C=C/c3ccc(Cl)cc3)C2)cc1` (stereo not shown) [Compound 26, N-[1-[[(E)-2-(4-chlorophenyl)ethenyl]sulfonyl]-3-pyrrolidinyl]-4-[(diaminomethylene)amino]-benzamide], the IC50 (commonly the concentration needed to halve the response being measured) came out at 600 nM.

The compound “N-[[4-[(aminoiminomethyl)amino]phenyl]methyl]-N-[1-[[(E)-2-(4-chlorophenyl)ethenyl]sulfonyl]-3-pyrrolidinyl]-4-[(diaminomethylene)amino]-benzamide [Compound 24]” displayed an IC50 of 4000 nM.

The next assay concerns the target T2, human Factor Xa (Homo sapiens, UniProt P00742).
T2 construct: commercial human Factor Xa (American Diagnostica); purchased American Diagnostica
Description: Factor Xa inhibition, enzyme-catalyzed hydrolysis assay (chromogenic substrate). The assay is classed as biochemical. The following applies: 5.7 nM Factor Xa, 30-700 μM substrate, pH 8.4, 37° C. As to the method: Enzyme-catalyzed hydrolysis rates were measured spectrophotometrically using commercial human Factor Xa (American Diagnostica), the chromogenic substrate (Meo—CO—D—CHG—Gly—Arg—pNa (American Diagnostica); in aqueous buffer (50 mM Trisma Base, 0.1% Tween 80, pH 8.4), and a microplate reader (Molecular Devices). Changes in absorbance at 405 nm were monitored using the software program Softmax (Molecular Devices), upon addition of enzyme, with and without inhibitor present at 37° C. for 30 minutes. The IC50 values were determined by fixing the enzyme and substrate concentrations (5.7 nM Factor Xa, 500 μM Factor Xa substrate) and varying the inhibitor concentration. Percent inhibition was calculated by comparing the initial reaction slopes of the without inhibitor samples to those with inhibitor. Inhibition constants (Ki) were determined by fixing the enzyme concentrations (5.7 nM Factor Xa) and inhibitor concentration and varying the substrate concentrations (30-700 μM Factor Xa substrate. Michaelis-Menton kinetics were applied to the initial reaction slopes using the program Kcat (Bio Metallics Inc.).
“4-[(aminoiminomethyl)amino]-N-(2-benzofuranylmethyl)-N-[1-[[(E)-2-(4-chlorophenyl)ethenyl]sulfonyl]-3-pyrrolidinyl]-benzamide [Compound 27]”: the Ki – broadly, a dissociation constant, usually derived from enzyme kinetics or from competition with a known ligand – was determined as 100 nM.

As to `NC(N)=Nc1ccc(C(=O)N(Cc2ccccc2)C2CCN(S(=O)(=O)/C=C/c3ccc(Cl)cc3)C2)cc1` (stereo not shown) [Compound 1, N-[1-[[(E)-2-(4-chlorophenyl)ethenyl]sulfonyl]-3-pyrrolidinyl]-4-[(diaminomethylene)amino]-N-(phenylmethyl)-benzamide], the Ki was 1600 nM.

Turning to `NC(N)=Nc1ccc(C(=O)N(Cc2ccc(O)cc2)C2CCN(S(=O)(=O)/C=C/c3ccc(Cl)cc3)C2)cc1` (stereo not shown) [Compound 2, N-[1-[[(E)-2-(4-chlorophenyl)ethenyl]sulfonyl]-3-pyrrolidinyl]-4-[(diaminomethylene)amino]-N-[(4-hydroxyphenyl)methyl]-benzamide], the Ki came to 300 nM.

For `COC(=O)c1ccc(CN(C(=O)c2ccc(N=C(N)N)cc2)C2CCN(S(=O)(=O)/C=C/c3ccc(Cl)cc3)C2)cc1` (stereo not shown) [Compound 3, 4-[[[1-[[(E)-2-(4-chlorophenyl)ethenyl]sulfonyl]-3-pyrrolidinyl][4-[(diaminomethylene)amino]benzoyl]amino]methyl]-benzoic acid methyl ester], the Ki worked out at 400 nM.

`COC(=O)c1cccc(CN(C(=O)c2ccc(N=C(N)N)cc2)C2CCN(S(=O)(=O)/C=C/c3ccc(Cl)cc3)C2)c1` (stereo not shown) [Compound 4, 3-[[[1-[[(E)-2-(4-chlorophenyl)ethenyl]sulfonyl]-3-pyrrolidinyl][4-[(diaminomethylene)amino]benzoyl]amino]methyl]-benzoic acid methyl ester] had a Ki of 7700 nM.

`NC(N)=Nc1ccc(C(=O)N(Cc2ccc(C(=O)O)cc2)C2CCN(S(=O)(=O)/C=C/c3ccc(Cl)cc3)C2)cc1` (stereo not shown) [Compound 5, 4-[[[1-[[(E)-2-(4-chlorophenyl)ethenyl]sulfonyl]-3-pyrrolidinyl][4-[(diaminomethylene)amino]benzoyl]amino]methyl]-benzoic acid] yielded a Ki of 200 nM.

For the compound `NC(N)=Nc1ccc(C(=O)N(Cc2cccc(C(=O)O)c2)C2CCN(S(=O)(=O)/C=C/c3ccc(Cl)cc3)C2)cc1` (stereo not shown) [Compound 6, 3-[[[1-[[(E)-2-(4-chlorophenyl)ethenyl]sulfonyl]-3-pyrrolidinyl][4-[(diaminomethylene)amino]benzoyl]amino]methyl]-benzoic acid], the Ki turned out to be 600 nM.

`COC(=O)COc1cccc(CN(C(=O)c2ccc(N=C(N)N)cc2)C2CCN(S(=O)(=O)/C=C/c3ccc(Cl)cc3)C2)c1` (stereo not shown) [Compound 8, [3-[[[1-[[(E)-2-(4-chlorophenyl)ethenyl]sulfonyl]-3-pyrrolidinyl][4-[(diaminomethylene)amino]benzoyl]amino]methyl]phenoxy]-acetic acid methyl ester] showed a Ki of 1100 nM.

Regarding `NC(=O)c1ccc(CN(C(=O)c2ccc(N=C(N)N)cc2)C2CCN(S(=O)(=O)/C=C/c3ccc(Cl)cc3)C2)cc1` (stereo not shown) [Compound 9, N-[[4-(aminocarbonyl)phenyl]methyl]-N-[1-[[(E)-2-(4-chlorophenyl)ethenyl]sulfonyl]-3-pyrrolidinyl]-4-[(diaminomethylene)amino]-benzamide], the Ki was 300 nM.

For the compound `COC(=O)CNC(=O)c1ccc(CN(C(=O)c2ccc(N=C(N)N)cc2)C2CCN(S(=O)(=O)/C=C/c3ccc(Cl)cc3)C2)cc1` (stereo not shown) [Compound 10, [[4-[[[1-[[(E)-2-(4-chlorophenyl)ethenyl]sulfonyl]-3-pyrrolidinyl][4-[(diaminomethylene)amino]benzoyl]amino]methyl]benzoyl]amino]-acetic acid methyl ester], the Ki turned out to be 200 nM.

Regarding `NC(N)=Nc1ccc(C(=O)N(Cc2cccc(OCC(=O)O)c2)C2CCN(S(=O)(=O)/C=C/c3ccc(Cl)cc3)C2)cc1` (stereo not shown) [Compound 11, [3-[[[1-[[(E)-2-(4-chlorophenyl)ethenyl]sulfonyl]-3-pyrrolidinyl][4-[(diaminomethylene)amino]benzoyl]amino]methyl]phenoxy]-acetic acid], the Ki worked out at 600 nM.

On to `NC(N)=Nc1ccc(C(=O)N(Cc2ccc(C(=O)NCC(=O)O)cc2)C2CCN(S(=O)(=O)/C=C/c3ccc(Cl)cc3)C2)cc1` (stereo not shown) [Compound 12, [[4-[[[1-[[(E)-2-(4-chlorophenyl)ethenyl]sulfonyl]-3-pyrrolidinyl][4-[(diaminomethylene)amino]benzoyl]amino]methyl]benzoyl]-amino]-acetic acid], for which the affinity corresponds to a Ki of 400 nM.

With `COC(=O)CNC(=O)c1cccc(CN(C(=O)c2ccc(N=C(N)N)cc2)C2CCN(S(=O)(=O)/C=C/c3ccc(Cl)cc3)C2)c1` (stereo not shown) [Compound 13, [[3-[[[1-[[(E)-2-(4-chlorophenyl)ethenyl]sulfonyl]-3-pyrrolidinyl][4-[(diaminomethylene)amino]benzoyl]amino]methyl]benzoyl]amino]-acetic acid methyl ester], the affinity, expressed as Ki, was 200 nM.

On to `NC(N)=Nc1ccc(C(=O)N(Cc2cccc(C(=O)NCC(=O)O)c2)C2CCN(S(=O)(=O)/C=C/c3ccc(Cl)cc3)C2)cc1` (stereo not shown) [Compound 14, [[3-[[[1-[[(E)-2-(4-chlorophenyl)ethenyl]sulfonyl]-3-pyrrolidinyl][4-[(diaminomethylene)amino]benzoyl]amino]methyl]benzoyl]amino]-acetic acid], for which the affinity corresponds to a Ki of 300 nM.

Take `NC(=O)c1cccc(CN(C(=O)c2ccc(N=C(N)N)cc2)C2CCN(S(=O)(=O)/C=C/c3ccc(Cl)cc3)C2)c1` (stereo not shown) [Compound 15, 3-[[[1-[[(E)-2-(4-chlorophenyl)ethenyl]sulfonyl]-3-pyrrolidinyl][4-[(diaminomethylene)amino]benzoyl]amino]methyl]-benzamide]: the Ki was determined as 600 nM.

The compound `NC(N)=Nc1ccc(C(=O)N2CCC(N(Cc3ccc(OCc4ccccc4)cc3)S(=O)(=O)/C=C/c3ccc(Cl)cc3)C2)cc1` (stereo not shown) [Compound 17, 2-(4-chlorophenyl)-N-[1-[4-[(diaminomethylene)amino]benzoyl]-3-pyrrolidinyl]-N-[[4-(phenylmethoxy)phenyl]methyl]-(E)-ethenesulfonamide] displayed a Ki of 4400 nM.

For `COC(=O)c1ccc(CN(C2CCN(C(=O)c3ccc(N=C(N)N)cc3)C2)S(=O)(=O)/C=C/c2ccc(Cl)cc2)cc1` (stereo not shown) [Compound 22, 4-[[[[(E)-2-(4-chlorophenyl)ethenyl]sulfonyl][1-[4-[(diaminomethylene)amino]benzoyl]-3-pyrrolidinyl]amino]methyl]-benzoic acid methyl ester], the affinity, expressed as Ki, was 7100 nM.

`COc1ccc2ccc(S(=O)(=O)N(Cc3ccccc3)C3CCN(C(=O)c4ccc(N=C(N)N)cc4)C3)cc2c1` (stereo not shown) [Compound 23, N-[1-[4-[(diaminomethylene)amino]benzoyl]-3-pyrrolidinyl]-7-methoxy-N-(phenylmethyl)-2-naphthalenesulfonamide] came in with a Ki of 21000 nM.
